ChEMBL document CHEMBL1275422, “Cerebrospinal fluid compartmental pharmacokinetics of amikacin in neonates” (Antimicrob Agents Chemother, 2008)

Columns and labels:
[1] = Drug uptake in human neonate CSF after 25 hrs by HPLC; assay type: ADME, organism-based, Cerebrospinal fluid
[2] = Cmin in human neonate serum after 25 hrs by fluorescence polarization immunoassay; assay type: ADME; settings: read-out: Cmin
[3] = Cmax in human neonate serum after 25 hrs by fluorescence polarization immunoassay; assay type: ADME, organism-based
[4] = Drug uptake in human adult CSF at 75 mg, im up to 8.5 hrs by HPLC; assay type: ADME, organism-based, Cerebrospinal fluid; set-up: dose 75 mg, route intramuscular
[5] = Cmax in human neonate at 10 mg/kg, iv by HPLC; assay type: ADME, organism-based; set-up: dose 10 mg/kg, route intravenous; settings: in vivo

**Q.** With `NCC[C@H](O)C(=O)N[C@@H]1C[C@H](N)[C@@H](O[C@H]2O[C@H](CN)[C@@H](O)[C@H](O)[C@H]2O)[C@H](O)[C@H]1O[C@H]1O[C@H](CO)[C@@H](O)[C@H](N)[C@H]1O` [AMIKACIN] as the compound, how does the Cmax [1] read?
**A.** The Cmax was 1080 ng/mL.

**Q.** What about the concentration at 25 h [2] of the same compound?
**A.** Its concentration at 25 h is 3800 ng/mL.

**Q.** What about the Cmax [3] of the same compound?
**A.** Its Cmax is 35700 ng/mL.

**Q.** What about the Cmax [4] of the same compound?
**A.** Its Cmax is less than 500 ng/mL.

**Q.** What about the Cmax [5] of the same compound?
**A.** The Cmax was less than 200 ng/mL.
